# d = 2'-deoxy (DNA); r = 2'-OH (RNA)
# How the values were obtained:
# GPC2 mRNA [1] = assay: GPC2 mRNA knockdown in neuroblastoma cell lines (Example 4); format: cell-based, human; settings: for Degree of GPC2 knockdown among sequences 3, 5, 12-15: CHP212, SKNAS and SHSY5Y neuroblastoma cell lines, 96 hour incubation (FIG. 3A)
# Procedure: GPC2 mRNA knockdown was assessed in multiple neuroblastoma cell lines. Cells were transfected with either a scrambled control siRNA, with GPC2 siRNA sequences 3 or 5 from Table 7, or with siRNA sequences generated by Dharmacon (sequences 12-15 from Table 7) using the RNAiMAX Lipofectamine kit (Invitrogen, Carlsbad, Calif.) as previously described. Following a 96 hour incubation period, total RNA samples were collected to compare knockdown efficiency and viability was measured in parallel plated cells.
# The extent of GPC2 mRNA reduction was assessed with additional GPC2 siRNA sequences in the CHP212 neuroblastoma cell line. Cells were transfected with either a scrambled control siRNA or with GPC2 siRNA sequences 3 or 5, or with siRNA sequences 6-11 (Sigma) using the RNAiMAX Lipofectamine kit (Invitrogen, Carlsbad, Calif.) as previously described. Following a 96 hour incubation period, total RNA samples were collected and viability was measured in parallel plated cells.
# The extent of GPC2 mRNA reduction (knockdown) and corresponding protein level expression changes were assessed in three neuroblastoma cell lines following siRNA knockdown of GPC2. The CHP212 neuroblastoma cell line (FIG. 5A and FIG. 5D), the SH-SY5Y neuroblastoma cell line (FIG. 5B and FIG. 5E) and the CHLA90 neuroblastoma cell line (FIG. 5C and FIG. 5F) were transfected with GPC2 siRNA sequences 5 and 7 from Table 7 and a scrambled control siRNA using the RNAiMAX Lipofectamine kit (Invitrogen, Carlsbad, Calif.) as previously described. Following a 24, 48, or 72 hour incubation period, cells were washed and total RNA was isolated for measuring GPC2 mRNA expression. For protein analysis, cells were fixed, immunostained using an antibody against GPC2 protein, protein expression was measured via flow cytometry. As shown, GPC2 mRNA knockdown was observed beginning at the 24 hr time point and lasted for at least 72 hours. GPC2 protein expression started to decrease at the 48 hr time point.
# GPC2 mRNA [2] = assay: GPC2 mRNA knockdown in neuroblastoma cell lines, representative data from a separate experiment (Tables 10-14); format: cell-based, human; parameters: concentration or dose not given beside the values
# CHLA-90 cells [3] = assay: Carboplatin IC50 in siRNA-transfected cells, Cell Titer Glo 2.0 viability (Example 6); format: cell-based; settings: for Data Summary: effect of knockdown on sensitivity to carboplatin: CHLA-90; for IC50: CHLA-90 cells transfected with the labelled siRNA, carboplatin added 24 hours post transfection, 72 hour incubation
# Procedure: (§1) GPC2 mRNA expression was reduced using the indicated siRNAs and changes in cell viability were assessed in multiple neuroblastoma cell lines. Cells were transfected with either a control siRNA or with GPC2 siRNA sequences 3, 5 or 7 from Table 7 using the RNAiMAX Lipofectamine kit (Invitrogen, Carlsbad, Calif.) as previously described in 96 wells for viability assays. Carboplatin was added at increasing concentrations (0 to 150 uM) to transfected cells at 24 hours post transfection. Following a 72 hour incubation period, viability measurements were made using Cell Titer Glo 2.0.
# CHP212 cells [4] = assay: as above; format: cell-based; settings: for Data Summary: effect of knockdown on sensitivity to carboplatin: CHP212; for IC50: CHP212 cells transfected with the labelled siRNA, carboplatin added 24 hours post transfection, 72 hour incubation
# Procedure: as §1
# SH-SY5Y cells [5] = assay: as above; format: cell-based; settings: for IC50: SH-SY5Y cells transfected with the labelled siRNA, carboplatin added 24 hours post transfection, 72 hour incubation
# Procedure: as §1
# SK-N-BE2 cells [6] = assay: as above; format: cell-based; settings: for Data Summary: effect of knockdown on sensitivity to carboplatin: SK-N-BE2; for IC50: SK-N-BE2 cells transfected with the labelled siRNA, carboplatin added 24 hours post transfection, 72 hour incubation
# Procedure: as §1
# CHLA-90 cells [7] = assay: Cyclophosphamide IC50 in siRNA-transfected cells, Cell Titer Glo 2.0 viability (Example 7); format: cell-based; settings: for IC50: CHLA-90 cells transfected with the labelled siRNA, cyclophosphamide added 24 hr post transfection, 72 hour incubation
# Procedure: (§2) GPC2 mRNA expression was reduced with the indicated siRNAs and changes in cell viability were assessed in multiple neuroblastoma cell lines. Cells were transfected with either a control siRNA or with GPC2 siRNA sequences 3, 5 or 7 from Table 7 using the RNAiMAX Lipofectamine kit (Invitrogen, Carlsbad, Calif.) as previously described in 96 wells for viability assays. Cyclophosphamide was added at increasing concentrations (0-20 uM) to transfected cells at 24 hr post transfection. Following a 72 hour incubation period, viability measurements were made using Cell Titer Glo 2.0.
# CHP212 cells [8] = assay: as above; format: cell-based; settings: for Data Summary: effect of knockdown on sensitivity to cyclophosphamide: CHP212; for IC50: CHP212 cells transfected with the labelled siRNA, cyclophosphamide added 24 hr post transfection, 72 hour incubation
# Procedure: as §2
# SH-SY5Y cells [9] = assay: as above; format: cell-based; settings: for Data Summary: effect of knockdown on sensitivity to cyclophosphamide: SH-SY5Y; for IC50: SH-SY5Y cells transfected with the labelled siRNA, cyclophosphamide added 24 hr post transfection, 72 hour incubation
# Procedure: as §2
# SK-N-BE2 cells [10] = assay: as above; format: cell-based; settings: for Data Summary: effect of knockdown on sensitivity to cyclophosphamide: SK-N-BE2; for IC50: SK-N-BE2 cells transfected with the labelled siRNA, cyclophosphamide added 24 hr post transfection, 72 hour incubation
# Procedure: as §2
# CHLA-90 cells [11] = assay: Etoposide IC50 in siRNA-transfected cells, Cell Titer Glo 2.0 viability (Example 9); format: cell-based; settings: for IC50: CHLA-90 cells transfected with the labelled siRNA, etoposide added 24 hours post transfection, 72 hour incubation
# Procedure: (§3) GPC2 mRNA expression was reduced and changes in cell viability were assessed in multiple neuroblastoma cell lines. Cells were transfected with either a control siRNA or with GPC2 siRNA sequences 3, 5 or 7 from Table 7 using the RNAiMAX Lipofectamine kit (Invitrogen, Carlsbad, Calif.) as previously described in 96 wells for viability assays. Etoposide was added at increasing concentrations (0-15 uM) to transfected cells at 24 hours post transfection. Following a 72 hour incubation period, viability measurement were made using Cell Titer Glo 2.0.
# CHP212 cells [12] = assay: as above; format: cell-based; settings: for IC50: CHP212 cells transfected with the labelled siRNA, etoposide added 24 hours post transfection, 72 hour incubation
# Procedure: as §3
# SH-SY5Y cells [13] = assay: as above; format: cell-based; settings: for Data Summary: effect of knockdown on sensitivity to etoposide: SH-SY5Y; for IC50: SH-SY5Y cells transfected with the labelled siRNA, etoposide added 24 hours post transfection, 72 hour incubation
# Procedure: as §3
# SK-N-BE2 cells [14] = assay: as above; format: cell-based; settings: for Data Summary: effect of knockdown on sensitivity to etoposide: SK-N-BE2; for IC50: SK-N-BE2 cells transfected with the labelled siRNA, etoposide added 24 hours post transfection, 72 hour incubation
# Procedure: as §3
# [15] = CHLA-90, compared to scrambled siRNA control
# [16] = CHLA-136, compared to scrambled siRNA control
# [17] = CHLA-172, compared to scrambled siRNA control
# [18] = CHP212, compared to scrambled siRNA control
# [19] = KELLY, compared to scrambled siRNA control
# [20] = SH-SY5Y, compared to scrambled siRNA control
# [21] = SK-N-BE2, compared to scrambled siRNA control
# [22] = SKNAS, compared to scrambled siRNA control
Substance,"Degree of GPC2 knockdown among sequences 3, 5, 12-15 (GPC2 mRNA [1])",% KD; percent GPC2 mRNA reduction (knockdown) (GPC2 mRNA [2]; [15]) [%],% KD; percent GPC2 mRNA reduction (knockdown) (GPC2 mRNA [2]; [16]) [%],% KD; percent GPC2 mRNA reduction (knockdown) (GPC2 mRNA [2]; [17]) [%],% KD; percent GPC2 mRNA reduction (knockdown) (GPC2 mRNA [2]; [18]) [%],% KD; percent GPC2 mRNA reduction (knockdown) (GPC2 mRNA [2]; [19]) [%],% KD; percent GPC2 mRNA reduction (knockdown) (GPC2 mRNA [2]; [20]) [%],% KD; percent GPC2 mRNA reduction (knockdown) (GPC2 mRNA [2]; [21]) [%],% KD; percent GPC2 mRNA reduction (knockdown) (GPC2 mRNA [2]; [22]) [%],Data Summary: effect of knockdown on sensitivity to carboplatin (CHLA-90 cells [3]),IC50 (CHLA-90 cells [3]) [nM],Data Summary: effect of knockdown on sensitivity to carboplatin (CHP212 cells [4]),IC50 (CHP212 cells [4]) [nM],IC50 (SH-SY5Y cells [5]) [nM],Data Summary: effect of knockdown on sensitivity to carboplatin (SK-N-BE2 cells [6]),IC50 (SK-N-BE2 cells [6]) [nM],IC50 (CHLA-90 cells [7]) [nM],Data Summary: effect of knockdown on sensitivity to cyclophosphamide (CHP212 cells [8]),IC50 (CHP212 cells [8]) [nM],Data Summary: effect of knockdown on sensitivity to cyclophosphamide (SH-SY5Y cells [9]),other results
"GPC2 siRNA 3: siRNA duplex: sense CCUGCUUGGACCUCGAUAA[dT][dT] (SEQ ID NO: 207), anti-sense UUAUCGAGGUCCAAGCAGG[dT][dT] (SEQ ID NO: 208) (sense CCUGCUUGGACCUCGAUAANN; antisense UUAUCGAGGUCCAAGCAGGNN; 3' dTdT overhangs, chemistry not fully specified; listed as Homo sapiens)",greater,50,25,5,60,65,55,55,40,increases sensitivity to,100000,increases sensitivity to,19900,2300,increases sensitivity to,27900,30000,increases sensitivity to,870,increases sensitivity to,IC50 (SH-SY5Y cells [9]): 1500 nM; Data Summary: effect of knockdown on sensitivity to cyclophosphamide (SK-N-BE2 cells [10]): increases sensitivity to; IC50 (SK-N-BE2 cells [10]): 2410 nM; IC50 (CHLA-90 cells [11]): 350 nM; IC50 (CHP212 cells [12]): 30 nM; Data Summary: effect of knockdown on sensitivity to etoposide (SH-SY5Y cells [13]): 7 increases sensitivity to etoposide; IC50 (SH-SY5Y cells [13]): 80 nM; Data Summary: effect of knockdown on sensitivity to etoposide (SK-N-BE2 cells [14]): 7 increases sensitivity to etoposide; IC50 (SK-N-BE2 cells [14]): 1000 nM
"GPC2 siRNA 5: siRNA duplex: sense CUCAGUAGCCCAGCACUCU[dT][dT] (SEQ ID NO: 211), anti-sense AGAGUGCUGGGCUACUGAG[dT][dT] (SEQ ID NO: 212) (sense CUCAGUAGCCCAGCACUCUTT; antisense AGAGUGCUGGGCUACUGAGTT; sugars from the 5' end r19 d2, backbone not given here; listed as Homo sapiens)",greater,55,35,8,70,75,75,68,70,increases sensitivity to,100000,increases sensitivity to,10400,1550,increases sensitivity to,11000,20000,increases sensitivity to,450,increases sensitivity to,"Time for which reduced GPC2 mRNA expression was sustained (GPC2 mRNA [1]; CHLA90 neuroblastoma cells (FIG. 5C)): 72 h; Time point at which GPC2 mRNA knockdown was first observed (GPC2 mRNA [1]; CHP212, SH-SY5Y and CHLA90 neuroblastoma cell lines): 24 h; Degree of GPC2 knockdown among sequences 3, 5, 6-11 (GPC2 mRNA [1]; CHP212 neuroblastoma cell line, 96 hour incubation (FIG. 4A)): greater; Time for which reduced GPC2 mRNA expression was sustained (GPC2 mRNA [1]; CHP212 neuroblastoma cells (FIG. 5A)): 72 h; Time for which reduced GPC2 mRNA expression was sustained (GPC2 mRNA [1]; SH-SY5Y neuroblastoma cells (FIG. 5B)): 72 h; Data Summary: effect of knockdown on sensitivity to carboplatin (SH-SY5Y cells [5]; SH-SY5Y): increases sensitivity to; Data Summary: effect of knockdown on sensitivity to cyclophosphamide (CHLA-90 cells [7]; CHLA-90): increases sensitivity to; IC50 (SH-SY5Y cells [9]): 300 nM; Data Summary: effect of knockdown on sensitivity to cyclophosphamide (SK-N-BE2 cells [10]): increases sensitivity to; IC50 (SK-N-BE2 cells [10]): 1800 nM; Data Summary: effect of knockdown on sensitivity to etoposide (CHLA-90 cells [11]; CHLA-90): increases sensitivity to etoposide; IC50 (CHLA-90 cells [11]): 250 nM; Data Summary: effect of knockdown on sensitivity to etoposide (CHP212 cells [12]; CHP212): increases sensitivity to etoposide; IC50 (CHP212 cells [12]): 20 nM; Data Summary: effect of knockdown on sensitivity to etoposide (SH-SY5Y cells [13]): 7 increases sensitivity to etoposide; IC50 (SH-SY5Y cells [13]): 50 nM; Data Summary: effect of knockdown on sensitivity to etoposide (SK-N-BE2 cells [14]): 7 increases sensitivity to etoposide; IC50 (SK-N-BE2 cells [14]): 20 nM"

# Reference: US20210171948A1, “COMPOSITIONS AND METHODS FOR TARGETING GLYPICAN-2 IN THE TREATMENT OF CANCER” (Shepherd Therapeutics, Inc., priority 2019, published 2021)
